# Reference: patent publication US20170023547A1, “CHEMICAL THREAT ASSESSMENT BY RAPID MOLECULAR PHENOTYPING” (Vanderbilt University, priority 2015, published 2017)
# Assays:
# Format in all cases: cell-based, Human
# [1] = system: A549 cells; test: Multi-omics analysis (transcriptome, proteome, phosphoproteome, metabolome); conditions: 50 μM cisplatin, A549 cells, 1, 6, 24 and 48 h
# Experimental: Samples were analyzed for transcriptome changes by RNA sequencing at the Genomics Services Lab, HudsonAlpha, for proteome changes by label free, SILAC, and phospho-enriched SILAC LC-MS/MS, and metabolome changes by UPLC-IM-MS and data-independent acquisition (MSE) using both hydrophilic-interaction liquid chromatography and reverse phase liquid chromatography.
# RNA was isolated using the RNeasy Mini Kit (Qiagen). For each time point, untreated and cisplatin-treated samples were isolated in triplicate and analyzed by the Genomics Services Lab at HudsonAlpha. RNAseq was performed using poly(A) selection on an Illumina HiSeq v4 sequencing platform. Reads were paired-end with a read length of 50 bp and 50 million reads per sample.
# Cells were scraped from slides and lysed in 300 μL of 50 mM Tris pH 8, 150 mM NaCl, 1% Nonidet 40, 1 mM EDTA with added HALT Protease Inhibitor Cocktail (Thermo Scientific), centrifuged, and assayed for protein concentration (BCA Protein Assay, Thermo Scientific Pierce) using a SpectraMax M2e Microplate Reader with SoftMax Pro software version 5 (Molecular Devices). Aliquots of 100 μg of protein were acetone precipitated in six times the volume for 2 h at −80° C. Precipitates were washed three times with cold acetone and reconstituted in 10 μL of neat trifluoroethanol (TFE) and 10 μL of 100 mM Tris (pH 8.0). […]
# [2] = system: A549 cells; test: Molecular screening assay (MALDI FTICR MS molecular variance score); conditions: 1 and 6 h exposure, doses 20-100 μM
# Experimental: After incubation for the respective times, wells were washed 3 times with PBS and stored at −80° C. The effect of different toxin dosage amounts and exposure times on the molecular content of a sample may be evaluated and reported directly for thousands of molecular species based upon the mass spectra that were collected for each of the samples. A comparison of the mass-to-charge (m/z) peak content between spectra from dosed cells and a reference spectrum from a non-dosed control sample delivers a mass spectrometric assessment of toxicity-induced molecular variation. However, seeking a data-driven global comparison instead of focusing on specific molecular species of interest makes the assessment of molecular change between the different experimental conditions very complex and high dimensional. To determine which dosage amount induces the greatest molecular change, a quick and broad assessment of toxicity-induced molecular variance summarizing the entire recorded mass range was developed. […]
# Within each time point (represented by a 24-well plate), seven different dosage conditions were measured: six different toxin dosages and one reference condition (e.g., untreated). Per dosage condition there were nine distinct replicate measurements made: each dosage condition was represented by three replicate wells, from which three technical replicate spectra were measured per well. […]
# [3] = system: A549 cells; test: Apoptosis assay (ApoONE, caspase 3/7 activation); conditions: 50 μM cisplatin
# Experimental: Cell viability and apoptosis were assessed by CellTiter Glo (Promega) and ApoONE (Promega) kits, respectively. Molecular changes were screened using a MALDI524 FTICR MS platform.
# Human lung carcinoma A549 cells were obtained from ATCC (Manassas, Va.) and cultured in Dulbecco's Modified Eagle's Medium (DMEM, Gibco) with 10% v/v heat-inactivated fetal bovine serum (Atlanta Biologicals) and 1% v/v penicillin/streptomycin (P/S) (Gibco) at 37° C. with 5% CO2 atmosphere. Stable isotope labeling by amino acids in cell culture (SILAC) media were prepared using SILAC DMEM (Thermo Scientific) containing 10% v/v dialyzed heat-inactivated FBS (Fisher), 1% v/v P/S, proline (250 mg/L) (Thermo Scientific), and appropriate light and heavy labeled arginine (84 mg/L), lysine (146 mg/L). […]
# At each time point, cell viability and apoptosis were assessed by CellTiter-Glo (Promega) and ApoONE (Promega) kits, respectively. Plates were incubated at 37° C. in a plate reader (BioTek) with data acquisition every 10 min by luminescence (1 s read time, 200 gain) and fluorescence (485 nm excitation, 528 nm emission). […] Cell viability was also assessed using the LIVE/DEAD Viability/Cytotoxicity Kit for mammalian cells (ThermoFisher). […]
smiles,measurement,setting,value
N.N.[Cl][Pt][Cl] [cisplatin],percentage of unique species detected that were significantly changed,[1],24%
same,number of significantly changed unique species,"[1]; of 53,500 unique species detected","13,483"
same,"dose up to which molecular variance increased (maximum molecular response, optimal dose)",[2],50 µM
same,time of maximal caspase activation,[3],24 h
